According to US9457033B2, “Steroid alkaloids and uses thereof as antimicrobial agents against electron transport-deficient microbes and as potentiators for antimicrobial agents against pathogenic bacteria” (priority 2011, dated 2016):
Values after ≈ are worked out from the molar mass of the structure shown. Like-named read-outs stand apart in the source and are kept apart here.

Columns and labels:
[1] = tested on: S. aureus Newbould (normal strain); assay: MIC, microdilution in BHI 48 h; assay type: cell-based, Staphylococcus aureus; details: Newbould, normal strain
[2] = tested on: S. aureus SCV NewbouldΔhemB; assay: MIC, microdilution in BHI 48 h; assay type: cell-based, Staphylococcus aureus
[3] = tested on: S. aureus CF07-L (normal strain); assay: MIC, microdilution in BHI 48 h (Examples 1, 3); assay type: cell-based, Staphylococcus aureus
[4] = tested on: S. aureus SCV CF07-S; assay: MIC, microdilution in BHI 48 h (Examples 1, 3); assay type: cell-based, Staphylococcus aureus
[5] = tested on: S. aureus CF1A-L (normal strain); assay: MIC, microdilution in BHI 48 h; assay type: cell-based, Staphylococcus aureus; details: CF1A-L, normal strain
[6] = tested on: S. aureus SCV CF1D-S; assay: MIC, microdilution in BHI 48 h; assay type: cell-based, Staphylococcus aureus; details: Staphylococcus aureus, SCVCF1DS
[7] = tested on: S. aureus 8325-4; assay: MIC, microdilution in CAMHB 24 h; assay type: cell-based, Staphylococcus aureus; details: 8325-4, Laboratory strain
[8] = tested on: S. aureus Newbould; assay: MIC, microdilution in CAMHB 24 h; assay type: cell-based, Staphylococcus aureus; details: Newbould, Cow (mastitis)
[9] = tested on: S. aureus SHY97-3906; assay: MIC, microdilution in CAMHB 24 h; assay type: cell-based, Staphylococcus aureus; details: SHY97-3906, Cow (mastitis)
[10] = tested on: S. aureus ATCC 43300; assay: MIC, microdilution in CAMHB 24 h; assay type: cell-based, Staphylococcus aureus; details: ATCC 43300, Human (HA), MRSA
[11] = tested on: S. aureus ATCC BAA-41; assay: MIC, microdilution in CAMHB 24 h; assay type: cell-based, Staphylococcus aureus; details: ATCC BAA-41, Human (HA), MRSA
[12] = tested on: S. aureus N315; assay: microbe, parasite or virus in culture; assay type: cell-based, Staphylococcus aureus; details: MRSA
[13] = tested on: S. aureus MA078038; assay: MIC, microdilution in CAMHB 24 h; assay type: cell-based, Staphylococcus aureus; details: MA078038, Human (CA), MRSA
[14] = tested on: S. aureus Newman; assay: MIC, microdilution in CAMHB 24 h; assay type: cell-based, Staphylococcus aureus; details: Newman, Human (Osteo)
[15] = tested on: S. aureus MRSA COL; assay: MIC, microdilution in CAMHB 24 h; assay type: cell-based, Staphylococcus aureus; details: MRSA COL, Human (SSTI)
[16] = tested on: S. aureus Mu50; assay: MIC, microdilution in CAMHB 24 h; assay type: cell-based, Staphylococcus aureus; details: Mu50, Human (SSTI), MRSA, VISA
[17] = tested on: S. aureus Sa220c; assay: MIC, microdilution in CAMHB 24 h; assay type: cell-based, Staphylococcus aureus; details: Sa220c, Human (SSTI), MRSA
[18] = tested on: S. aureus Sa228c; assay: MIC, microdilution in CAMHB 24 h; assay type: cell-based, Staphylococcus aureus; details: MRSA
[19] = tested on: S. aureus CF1A-L; assay: MIC, microdilution in CAMHB 24 h; assay type: cell-based, Staphylococcus aureus; details: CF1A-L, Human (CF lungs)
[20] = tested on: S. aureus CF2A-L; assay: MIC, microdilution in CAMHB 24 h; assay type: cell-based; details: CF2A-L, Human (CF lungs)
[21] = tested on: S. aureus CF4B-L; assay: MIC, microdilution in CAMHB 24 h; assay type: cell-based, Staphylococcus aureus; details: CF4B-L, Human (CF lungs)
[22] = tested on: S. aureus CF6B-L; assay: MIC, microdilution in CAMHB 24 h; assay type: cell-based, Staphylococcus aureus; details: CF6B-L, Human (CF lungs)
[23] = tested on: S. aureus CF7A-L; assay: MIC, microdilution in CAMHB 24 h; assay type: cell-based, Staphylococcus aureus; details: CF7A-L, Human (CF lungs), MRSA
[24] = tested on: S. aureus CF8E-L; assay: MIC, microdilution in CAMHB 24 h; assay type: cell-based, Staphylococcus aureus; details: CF8E-L, Human (CF lungs)
[25] = tested on: S. aureus CF9A-L; assay: MIC, microdilution in CAMHB 24 h; assay type: cell-based, Staphylococcus aureus; details: CF9A-L, Human (CF lungs), MRSA
[26] = tested on: S. aureus CF35A-L; assay: MIC, microdilution in CAMHB 24 h; assay type: cell-based, Staphylococcus aureus; details: CF35A-L, Human (CF lungs), MRSA
[27] = tested on: S. aureus CF07-L; assay: MIC, microdilution in CAMHB 24 h; assay type: cell-based, Staphylococcus aureus; details: CF07-L, Human (CF lungs)
[28] = tested on: S. aureus ATCC 29213; assay: MIC, microdilution in BHI 48 h (Examples 1, 3); assay type: cell-based, Staphylococcus aureus
[29] = tested on: S. aureus ATCC 29213; assay: MIC, microdilution in CAMHB 24 h, with or without tomatidine/compound; assay type: cell-based, Staphylococcus aureus; details: ATCC 29213
[30] = Staphylococcus aureus, read-out: MIC

With `O=C(O)c1cn(C2CC2)c2cc(N3CCNCC3)c(F)cc2c1=O` [Ciprofloxacin, ciprofloxacin] the MIC [1, 30] was 0.25 to 0.5 µg/mL (≈ 0.754 to 1.51 µM), the MIC ([2]; Staphylococcus aureus) was 0.12 to 0.25 µg/mL (≈ 0.362 to 0.754 µM) and the MIC ([3]; CF07-L + HQNO at 20 μg/ml) was 0.25 µg/mL. The MIC ([3]; CF07-L, without HQNO) was 0.5 µg/mL (≈ 1.51 µM), the MIC ([3]; Staphylococcus aureus, CF07-L, normal strain, read-out: MIC) was 0.5 µg/mL (≈ 1.51 µM) and the MIC ([4]; CF07-S + HQNO at 20 μg/ml) was 0.12 µg/mL. For the same molecule, the MIC ([4]; CF07-S, without HQNO) was 0.12 µg/mL (≈ 0.362 µM), the MIC ([4]; Staphylococcus aureus, SCVCF07S) was 0.12 µg/mL (≈ 0.362 µM) and the MIC [5, 30] was 0.5 µg/mL (≈ 1.51 µM). For the same molecule, the MIC [6] was 0.12 µg/mL (≈ 0.362 µM), the MIC ([7]; Staphylococcus aureus, 83254, read-out: MIC) was 0.25 to 0.5 µg/mL (≈ 0.754 to 1.51 µM) and the MIC [8, 30] was 0.25 µg/mL (≈ 0.754 µM). For the same molecule, the MIC ([9]; Staphylococcus aureus, SHY973906, read-out: MIC) was 0.25 µg/mL (≈ 0.754 µM), the MIC ([10]; Staphylococcus aureus, ATCC 43300 / MRSA, read-out: MIC) was 0.5 µg/mL (≈ 1.51 µM) and the MIC ([11]; Staphylococcus aureus, ATCC BAA-41 / MRSA, read-out: MIC) was > 64 µg/mL. For the same molecule, the MIC ([12]; Staphylococcus aureus) was 0.25 µg/mL (≈ 0.754 µM), the MIC [13, 30] was 16 µg/mL (≈ 48.3 µM) and the MIC [14, 30] was 0.25 µg/mL (≈ 0.754 µM). For the same molecule, the MIC [15, 30] was 0.5 µg/mL (≈ 1.51 µM), the MIC [16, 30] was 32 to 64 µg/mL (≈ 96.6 to 193 µM) and the MIC [17, 30] was 32 µg/mL (≈ 96.6 µM). For the same molecule, the MIC ([18]; Staphylococcus aureus) was > 64 µg/mL, the MIC ([19]; Staphylococcus aureus, CF1AL, read-out: MIC) was 0.5 to 1 µg/mL (≈ 1.51 to 3.02 µM) and the MIC ([20]; Staphylococcus aureus, CF2AL, read-out: MIC) was 0.25 µg/mL (≈ 0.754 µM). For the same molecule, the MIC ([21]; Staphylococcus aureus, CF4BL, read-out: MIC) was 0.25 to 0.5 µg/mL (≈ 0.754 to 1.51 µM), the MIC ([22]; Staphylococcus aureus, CF6BL, read-out: MIC) was > 64 µg/mL and the MIC [23, 30] was > 64 µg/mL. The MIC ([24]; Staphylococcus aureus, CF8EL, read-out: MIC) was 1 µg/mL (≈ 3.02 µM), the MIC [25, 30] was > 64 µg/mL and the MIC [26, 30] was > 64 µg/mL. It also gave an MIC ([27]; Staphylococcus aureus, CF07L, read-out: MIC) of 0.5 µg/mL (≈ 1.51 µM).

Work on `Cc1onc(-c2ccccc2)c1C(=O)N[C@@H]1C(=O)N2[C@@H]1SC(C)(C)[C@@H]2C(=O)O` [Oxacillin, oxacillin] yielded an MIC ([28]; ATCC 29213 + HQNO at 20 μg/ml) of 0.12 µg/mL, an MIC ([28]; ATCC 29213, without HQNO) of 0.12 to 0.25 µg/mL and an MIC ([28]; ATCC 29213 in BHI) of 0.12 to 0.25 µg/mL. For the same molecule, the MIC ([28]; ATCC 29213 in MHBCA) was 0.12 to 0.5 µg/mL, the MIC [1] was 0.06 to 0.12 µg/mL and the MIC ([2]; NewbouldΔhemB, SCV) was 0.03 to 0.06 µg/mL. The MIC ([3]; CF07-L + HQNO at 20 μg/ml) was 0.06 to 0.12 µg/mL, the MIC ([3]; CF07-L, normal strain) was 0.06 to 0.12 µg/mL and the MIC ([3]; CF07-L, without HQNO) was 0.06 to 0.12 µg/mL. For the same molecule, the MIC [5] was 0.25 µg/mL (≈ 0.623 µM), the MIC ([29]; Human (SSTI)) was 0.25 µg/mL (≈ 0.623 µM) and the “MIC −TO” value ([29]; absence of tomatidine) was 0.25 µg/mL (≈ 0.623 µM). For the same molecule, the “MIC +TO” value ([29]; presence of tomatidine at 8 μg/ml) was 0.25 µg/mL, the “Fold (−TO/+TO)” value ([29]; tomatidine at 8 μg/ml) was 1 fold and the MIC [7] was 0.12 µg/mL (≈ 0.299 µM). For the same molecule, the MIC [8] was 0.12 µg/mL (≈ 0.299 µM), the MIC [9] was 0.12 to 0.25 µg/mL and the MIC [10] was 16-32 (R) μg/ml. The MIC [11] was >64 (R) μg/ml, the MIC ([12]; N315, Human (HA)) was 8 (R) μg/ml and the MIC [13] was 64 (R) μg/ml. For the same molecule, the MIC [14] was 0.5 to 1 µg/mL, the MIC [15] was >64 (R) μg/ml and the MIC [16] was >64 (R) μg/ml. The MIC [17] was 16-32 (R) μg/ml, the MIC ([18]; Sa228c, Human (SSTI)) was >64 (R) μg/ml and the MIC [19] was 0.25 to 0.5 µg/mL. The MIC [20] was 0.25 µg/mL (≈ 0.623 µM), the MIC [21] was 0.5 µg/mL (≈ 1.25 µM) and the MIC [22] was 0.25 to 1 µg/mL. The MIC [23] was >64 (R) μg/ml, the MIC [24] was 0.125 µg/mL (≈ 0.311 µM) and the MIC [25] was >64 (R) μg/ml. For the same molecule, the MIC [26] was >64 (R) μg/ml and the MIC [27] was 0.12 to 0.25 µg/mL.
